The values that follow come from US20260217708A1, “FUSED BENZAZEPINE DERIVATIVES FOR USE IN THE TREATMENT OF CANCER AND EPILEPSY” (UCB BIOPHARMA SRL, priority 2023, published 2026).

Experiment [1] addresses T1, system Xc^− (Homo sapiens, UniProt Q9UPY5).
T1 sequence (Q9UPY5 1-501): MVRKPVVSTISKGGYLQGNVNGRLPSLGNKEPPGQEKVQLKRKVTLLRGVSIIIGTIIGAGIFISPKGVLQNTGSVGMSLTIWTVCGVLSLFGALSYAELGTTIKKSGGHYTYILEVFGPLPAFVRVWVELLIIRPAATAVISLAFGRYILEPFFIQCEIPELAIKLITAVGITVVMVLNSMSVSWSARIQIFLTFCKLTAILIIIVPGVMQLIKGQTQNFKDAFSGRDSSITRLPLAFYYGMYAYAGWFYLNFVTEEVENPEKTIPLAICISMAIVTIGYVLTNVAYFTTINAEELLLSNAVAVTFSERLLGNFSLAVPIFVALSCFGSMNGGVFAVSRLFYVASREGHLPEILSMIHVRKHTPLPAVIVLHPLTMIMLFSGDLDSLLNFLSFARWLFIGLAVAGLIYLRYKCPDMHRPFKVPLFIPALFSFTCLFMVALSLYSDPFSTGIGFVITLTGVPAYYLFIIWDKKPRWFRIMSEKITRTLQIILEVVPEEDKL
T1 sequence (P08195 1-529 partner): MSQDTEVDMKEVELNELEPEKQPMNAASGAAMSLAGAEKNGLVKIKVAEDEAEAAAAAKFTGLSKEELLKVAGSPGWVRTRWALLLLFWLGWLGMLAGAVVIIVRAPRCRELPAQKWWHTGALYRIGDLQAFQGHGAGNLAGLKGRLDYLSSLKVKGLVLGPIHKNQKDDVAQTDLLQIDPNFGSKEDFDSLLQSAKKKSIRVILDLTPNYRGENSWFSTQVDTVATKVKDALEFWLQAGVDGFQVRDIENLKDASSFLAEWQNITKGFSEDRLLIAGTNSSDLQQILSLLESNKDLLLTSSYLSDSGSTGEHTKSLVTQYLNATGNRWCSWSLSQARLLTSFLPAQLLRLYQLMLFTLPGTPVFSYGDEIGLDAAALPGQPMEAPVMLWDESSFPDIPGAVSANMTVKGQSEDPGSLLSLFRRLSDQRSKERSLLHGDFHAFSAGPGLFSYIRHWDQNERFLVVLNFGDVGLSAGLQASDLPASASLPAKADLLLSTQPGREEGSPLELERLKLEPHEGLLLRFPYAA
Kind of experiment: Cystine-induced glutamate release assay. In kind it is cell-based. Further details: endogenous in cells; host or cells: H4 cells. The following applies: H4 cells, sodium-free HEPES buffer, 50 μM L-Cystine, 2 hours, Amplex Red glutamate readout; read-out: pIC50 Cystine-induced glutamate release assay (converted). The method in brief: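 H4 cells in sodium-free HEPES buffer (pH 7.4), 2 days after plating; glutamate release induced with 50 μM L-cystine plus compound (1% DMSO), 2 h at 37 °C. Supernatant glutamate measured by Amplex Red fluorescence; IC50/pIC50 derived between 1% DMSO and 50 μM erastin controls.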

For experiment [2], the target named is T1, system Xc^−. Kind of experiment: [^14C]L-Cystine uptake assay. In kind it is cell-based. Further details: endogenous in cells; host or cells: H4 cells. The note with it: H4 cells, sodium-free HEPES buffer, 0.5 μM L-[14C]Cystine and 4.5 μM L-Cystine, 1 hour at 37° C.; read-out: pIC50 [^14C] L-Cystine uptake assay (converted). The method in brief:
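H4 cells at 5×10^4 cells/well in sodium-free HEPES buffer were preincubated 15 min with compounds (1% DMSO). Uptake of 0.5 μM [14C]L-cystine plus 4.5 μM unlabelled L-cystine ran 1 hour at 37° C on scintillating plates. IC50 was set between 1% DMSO and 50 μM Erastin controls and expressed as pIC50.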

As to `CC1C(=O)N(CC(=O)Nc2ccc(C(F)F)cc2)c2cc(N3CC(C)(O)C3)nc(F)c2-c2cccnc21` (single isomer, unassigned) [#275, N-[4-(difluoromethyl)phenyl]-2-[3-fluoro-5-(3-hydroxy-3-methyl-azetidin-1-yl)-10-methyl-9-oxo-4,8,12-triazatricyclo[9.4.0.0^2,7]pentadeca-1(15),2,4,6,11,13-hexaen-8-yl]acetamide], the IC50 in experiment [1] and in experiment [2] was less than 15.8 nM throughout.
Turning to `Cc1cc2c(c(F)n1)-c1ccc(C)nc1C(C)C(=O)N2CC(=O)Nc1ccc(C(F)(F)F)cc1` (stereo not drawn) [#93, 2-(3-fluoro-5,10,13-trimethyl-9-oxo-4,8,12-triazatricyclo[9.4.0.0^2,7]pentadeca-1(11),2(7),3,5,12,14-hexaen-8-yl)-N-[4-(trifluoromethyl)phenyl]acetamide], the figures for the IC50 in experiment [1] and in experiment [2] were 39.8 to 100 nM and 15.8 to 39.8 nM, respectively.
In the same order, the values of `Cc1cc2c(c(Cl)n1)-c1ccccc1CC(=O)N2CC(=O)Nc1ccc(C(F)(F)F)cc1` [#49, 2-(1-chloro-3-methyl-6-oxo-7H-pyrido[4,3-d][3]benzazepin-5-yl)-N-[4-(trifluoromethyl)phenyl]acetamide] are 15.8 to 39.8 nM and less than 15.8 nM.
On the same counts, the results for `Cc1cc2c(cc1C)N(CC(=O)Nc1ccc(C(F)(F)F)cc1)C(=O)Cc1cccnc1-2` [#22, 2-(9,10-dimethyl-6-oxo-5H-pyrido[3,2-d][1]benzazepin-7-yl)-N-[4-(trifluoromethyl)phenyl]acetamide] are 100 to 501 nM and 39.8 to 100 nM.
On the same counts, the results for `Cc1cc2c(c(Cl)n1)-c1cccnc1C(C)C(=O)N2CC(=O)Nc1ccc(C(F)(F)F)nc1` (single isomer, unassigned) [#228, Enantiomer (10S) or (10R) of 2-[3-chloro-5,10-dimethyl-9-oxo-4,8,12-triazatricyclo[9.4.0.0^2,7]pentadeca-1(15),2,4,6,11,13-hexaen-8-yl]-N-[6-(trifluoromethyl)-3-pyridyl]acetamide] are less than 15.8 nM and less than 15.8 nM.
In the case of `Cc1cc2c(c(Cl)n1)-c1cccnc1N(C)C(=O)N2CC(=O)Nc1ccc(C(F)(F)F)cc1` [#126, 2-(3-chloro-5,10-dimethyl-9-oxo-4,8,10,12-tetrazatricyclo[9.4.0.0^2,7]pentadeca-1(11),2,4,6,12,14-hexaen-8-yl)-N-[4-(trifluoromethyl)phenyl]acetamide], the IC50 is 15.8 to 39.8 nM in experiment [1] and less than 15.8 nM in experiment [2].
On the same counts, the results for `Cc1cc2c(c(CO)n1)-c1ccccc1CC(=O)N2CC(=O)Nc1ccc(C(F)(F)F)cc1` [#66, 2-[1-(hydroxymethyl)-3-methyl-6-oxo-7H-pyrido[4,3-d][3]benz-azepin-5-yl]-N-[4-(trifluoromethyl)phen-yl]acetamide] are 100 to 501 nM and 39.8 to 100 nM.
On the same counts, the results for `Cc1cc2c(c(C#N)n1)-c1cccnc1C(C)C(=O)N2CC(=O)Nc1ccc(Cl)c(F)c1` (single isomer, unassigned) [#155, N-(4-chloro-3-fluoro-phenyl)-2-[3-cyano-5,10-dimethyl-9-oxo-4,8,12-triazatricyclo[9.4.0.0^2,7]pentadeca-1(11),2(7),3,5,12,14-hexaen-8-yl]acetamide] are less than 15.8 nM and less than 15.8 nM.
In the same order, the values of `Cc1cc2c(c(Cl)n1)-c1cccnc1C(C)C(=O)N2CC(=O)Nc1ccc(C(F)(F)F)cn1` (single isomer, unassigned) [#229, Enantiomer (10S) or (10R) of 2-[3-chloro-5,10-dimethyl-9-oxo-4,8,12-triazatricyclo[9.4.0.0^2,7]pentadeca-1(15),2,4,6,11,13-hexaen-8-yl]-N-[5-(trifluoromethyl)-2-pyridyl]acetamide] are 15.8 to 39.8 nM and 39.8 to 100 nM.
`CO[C@H]1C(=O)N(CC(=O)Nc2ccc(C(F)(F)F)cc2)c2cc(C)nc(Cl)c2-c2ccccc21` (single isomer, unassigned) [#199, Entnaiomer (7R) or (7S) of 2-[1-chloro-7-methoxy-3-methyl-6-oxo-7H-pyrido[4,3-d][3]benzazepin-5-yl]-N-[4-(trifluoromethyl)phenyl]acetamide]: the IC50 in experiment [1] was 15.8 to 39.8 nM; in experiment [2], less than 15.8 nM.
Regarding `Cc1cc2c(c(F)n1)-c1cccnc1[C@@H](C)C(=O)N2CC(=O)Nc1ccc(C2CC2(F)F)cc1` (single isomer, unassigned) [#146], the results for the IC50 in experiment [1] and in experiment [2] were 39.8 to 100 nM and 100 to 501 nM, respectively.
On the same counts, the results for `O=C(CN1C(=O)Cc2ncccc2-c2c1cc(N1CC3(C1)CC3(F)F)nc2F)Nc1ccc(C(F)F)cc1` [#421, 2-[5-(2,2-difluoro-5-azaspiro[2.3]hexan-5-yl)-3-fluoro-9-oxo-4,8,12-triazatricyclo[9.4.0.0^2,7]pentadeca-1(11),2(7),3,5,12,14-hexaen-8-yl]-N-[4-(difluoromethyl)phenyl]acetamide] are 15.8 to 39.8 nM and 15.8 to 39.8 nM.
On the same counts, the results for `CC1C(=O)N(CC(=O)Nc2ccc(C(F)F)cc2)c2cc(Cl)cc(F)c2-c2cccnc21` (single isomer, unassigned) [#332, 2-[9-chloro-11-fluoro-5-methyl-6-oxo-5H-pyrido[2,3-d][1]benzazepin-7-yl]-N-[4-(difluoromethyl)phenyl]acetamide] are 15.8 to 39.8 nM and less than 15.8 nM.
As to `Cc1cc2c(c(F)n1)-c1cccnc1[C@@H](C)C(=O)N2CC(=O)Nc1ccc(Cl)c(F)c1` (single isomer, unassigned) [#200, Enantiomer (10R) or (10S) of N-(4-chloro-3-fluoro-phenyl)-2-[3-fluoro-5,10-dimethyl-9-oxo-4,8,12-triazatricyclo[9.4.0.0^2,7]pentadeca-1(11),2(7),3,5,12,14-hexaen-8-yl]acetamide], the figures for the IC50 in experiment [1] and in experiment [2] were 15.8 to 39.8 nM and less than 15.8 nM, respectively.
In the same order, the values of `CC1C(=O)N(CC(=O)Nc2ccc(C(F)F)cc2)c2cc(N3CC(C)(F)C3)nc(F)c2-c2cccnc21` (single isomer, unassigned) [#288, N-[4-(difluoromethyl)phenyl]-2-[3-fluoro-5-(3-fluoro-3-methyl-azetidin-1-yl)-10-methyl-9-oxo-4,8,12-triazatricyclo[9.4.0.0^2,7]pentadeca-1(15),2,4,6,11,13-hexaen-8-yl]acetamide] are less than 15.8 nM and less than 15.8 nM.
On the same counts, the results for `Cc1ncc2c(n1)C(C)C(=O)N(CC(=O)Nc1ccc(Cl)c(F)c1)c1cc(Cl)cc(F)c1-2` (single isomer, unassigned) [#373, 2-[9-chloro-11-fluoro-3,5-dimethyl-6-oxo-5H-pyrimido[4,5-d][1]benzazepin-7-yl]-N-(4-chloro-3-fluoro-phenyl)acetamide] are 15.8 to 39.8 nM and 15.8 to 39.8 nM.
Turning to `Cc1cc2c(n(C)c1=O)-c1ccc(F)cc1C(C)C(=O)N2CC(=O)Nc1ccc(Cl)c(F)c1` (stereo not drawn) [#354, N-(4-chloro-3-fluoro-phenyl)-2-(9-fluoro-1,3,7-trimethyl-2,6-dioxo-7H-pyrido[3,2-d][3]benzazepin-5-yl)acetamide], the IC50 in experiment [1] was 15.8 to 39.8 nM; in experiment [2], less than 15.8 nM.
In the same order, the values of `Cc1cc2c(c(F)n1)-c1cc(C)nn1CC(=O)N2CC(=O)Nc1ccc(C(F)(F)F)cc1` [#106, 2-(14-fluoro-4,12-dimethyl-8-oxo-5,6,9,13-tetrazatricyclo[8.4.0.0^2,6]tetradeca-1(10),2,4,11,13-pentaen-9-yl)-N-[4-(trifluoromethyl)phenyl]acetamide] are 39.8 to 100 nM and 100 to 501 nM.
